Test results published in publication PMC6576746, “Rational discovery of dual-indication multi-target PDE/Kinase inhibitor for precision anti-cancer therapy using structural systems pharmacology” (PLoS Computational Biology, 2019).

Key:
Assay in all cases: cells
Set-up in all cases: species or system panel of human cancer cell lines; Eurofins OncoPanel proliferation; nuclei count by high-content fluorescence imaging, 10-point dose response
SCC-9 = conditions: Homo sapiens, SCC-9, 72 h, cell count, 3 days
How it was run: (§1)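 Cells in RPMI 1640/10% FBS or special medium received compound the day after seeding, with a time-zero plate; 3-day incubation at 37°C, 5% CO2. Nuclei imaged by fluorescence microscopy; 10 half-log doses from 100 μM, 0.1% DMSO. EC50, IC50, GI50 and activity area (0–10) from curve fits.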

Y79 = conditions: Homo sapiens, Y79, 72 h, cell count, 3 days
How it was run: as §1

CRO-AP2 = conditions: Homo sapiens, CRO-AP2, 72 h, cell count, 3 days
How it was run: as §1

SW982 = conditions: Homo sapiens, SW982, 72 h, cell count, 3 days
How it was run: as §1

Hs 821.T = conditions: 72 h, cell count, 3 days
How it was run: as §1

RPMI 8226 = conditions: Homo sapiens, RPMI-8226, 72 h, cell count, 3 days
How it was run: as §1

SJRH30 = conditions: Homo sapiens, SJRH30, 72 h, cell count, 3 days
How it was run: as §1

Hs 695T = conditions: Homo sapiens, Hs 695T, 72 h, cell count, 3 days
How it was run: as §1

A388 = conditions: 72 h, cell count, 3 days
How it was run: as §1

Cal 27 = conditions: Homo sapiens, CAL-27, 72 h, cell count, 3 days
How it was run: as §1

Hs 895.T = conditions: 72 h, cell count, 3 days
How it was run: as §1

Detroit 562 = conditions: Homo sapiens, Detroit 562, 72 h, cell count, 3 days
How it was run: as §1

HCT-116 = conditions: Homo sapiens, HCT-116, 72 h, cell count, 3 days
How it was run: as §1

KU812 = conditions: Homo sapiens, KU812, 72 h, cell count, 3 days
How it was run: as §1

[1] = 50% of maximum possible response

## C[C@@H]1CC(=O)NN=C1c1ccc(NN=C(C#N)C#N)cc1 [levosimendan]
SCC-9; [1]
  IC50: 33.6 µM
SCC-9; corrected for time zero
  GI50: 26.3 µM
SCC-9; curve inflection point
  EC50: 33.6 µM
Y79; [1]
  IC50: 36.2 µM
Y79; corrected for time zero
  GI50: 16 µM
Y79; curve inflection point
  EC50: 32.8 µM
CRO-AP2; [1]
  IC50: 10.3 µM
CRO-AP2; corrected for time zero
  GI50: 8.29 µM
CRO-AP2; curve inflection point
  EC50: 9.97 µM
SW982; [1]
  IC50: 43.7 µM
SW982; corrected for time zero
  GI50: 31.3 µM
SW982; curve inflection point
  EC50: 43.7 µM
Hs 821.T; [1]
  IC50: > 100 µM
Hs 821.T; corrected for time zero
  GI50: > 100 µM
Hs 821.T; curve inflection point
  EC50: > 100 µM
RPMI 8226; [1]
  IC50: 25.1 µM
RPMI 8226; corrected for time zero
  GI50: 17.1 µM
RPMI 8226; curve inflection point
  EC50: 25.1 µM
SJRH30; [1]
  IC50: 11.4 µM
SJRH30; corrected for time zero
  GI50: 7.7 µM
SJRH30; curve inflection point
  EC50: 9.67 µM
Hs 695T; [1]
  IC50: 44.9 µM
Hs 695T; corrected for time zero
  GI50: 15.2 µM
Hs 695T; curve inflection point
  EC50: 26.7 µM
A388; [1]
  IC50: 61.1 µM
A388; corrected for time zero
  GI50: 48.4 µM
A388; curve inflection point
  EC50: 61.1 µM
Cal 27; [1]
  IC50: 14.9 µM
Cal 27; corrected for time zero
  GI50: 13.2 µM
Cal 27; curve inflection point
  EC50: 14.5 µM
Hs 895.T; [1]
  IC50: > 100 µM
Hs 895.T; corrected for time zero
  GI50: 32.8 µM
Hs 895.T; curve inflection point
  EC50: > 100 µM
Detroit 562; [1]
  IC50: 50.9 µM
Detroit 562; corrected for time zero
  GI50: 28.4 µM
Detroit 562; curve inflection point
  EC50: 50.9 µM
HCT-116; [1]
  IC50: 8.39 µM
HCT-116; corrected for time zero
  GI50: 8.1 µM
HCT-116; curve inflection point
  EC50: 8.01 µM
KU812; [1]
  IC50: 70.3 µM
KU812; corrected for time zero
  GI50: 48.8 µM
KU812; curve inflection point
  EC50: 70.3 µM
